Here are results for 3 compounds from patent US10604554B2, “Double-acylated GLP-1 derivatives” (Novo Nordisk A/S, priority 2012, dated 2020).

Assay [1] deals with T1, human GLP-1 receptor (Homo sapiens, UniProt P43220).
T1 construct: expressed in transfected cells; host or cells: BHK cells, clone FCW467-12A/KZ10-1 (parent line BHKTS13), further transfected with CRE luciferase
Description: In vitro potency (CRE luciferase; whole cells). Further details: EC50/pM (ratio 1% HSA/0% HSA): unit not given here. Type of assay: cell-based. The conditions noted are these: for pEC50: BHK cells. The method, then: The purpose of this example is to test the activity, or potency, of the GLP-1 derivatives in vitro. The in vitro potency is the measure of human GLP-1 receptor activation in a whole cell assay.
In vitro potency was determined by measuring the response of human GLP-1 receptor in a reporter gene assay. The assay was performed in a stably transfected BHK cell line that expresses the human GLP-1 receptor and contains the DNA for the cAMP response element (CRE) coupled to a promoter and the gene for firefly luciferase (CRE luciferase). When the human GLP-1 receptor was activated it results in the production of cAMP, which in turn results in the luciferase protein being expressed. When assay incubation was completed the luciferase substrate (luciferin) was added and the enzyme converts luciferin to oxyluciferin and produces bioluminescence. The luminescence was measured and was the readout for the assay.
An increase of the in vitro potency, EC50 value, in the presence of serum albumin indicates an affinity to serum albumin and represents a method to predict a protracted pharmacokinetic profile of the test substance in animal models.
The cells were cultured at 5% CO2 in cell culture medium. They were aliquoted and stored in liquid nitrogen. Before each assay an aliquot was taken up and washed twice in PBS before being suspended at the desired concentration in the assay specific buffer.
The following chemicals were used in the assay: Pluronic F-68 (10%) (Gibco 2404), human serum albumin (HSA) (Sigma A9511), ovalbumin (Sigma A5503), DMEM w/o phenol red (Gibco 11880-028), 1 M Hepes (Gibco 15630), Glutamax 100× (Gibco 35050) and steadylite plus (PerkinElmer 6016757).
1) Cell stocks were thawed in a 37° C. water bath.
2) Cells were washed three times in PBS.
3) The cells were counted and adjusted to 5×10^3 cells/50 μl (1×10^5 cells/ml) in assay medium. A 50 μl aliquot of cells was transferred to each well in the assay plate.
4) Stocks of the test compounds and reference compounds were diluted to a concentration of 0.2 μM in 0% assay buffer for the 0% HSA CRE luciferase assay and 1% assay buffer for the HSA CRE luciferase assay. […] 5) A 50 μl aliquot of compound or blank was transferred in triplicate from the dilution plate to the assay plate. […] 7) The assay plate was removed from the incubator and allowed to stand at room temperature for 15 min. 8) A 100 μl aliquot of steadylite plus reagent was added to each well of the assay plate (reagent was light sensitive). 9) Each assay plate was covered with aluminum foil to protect it from light and shaken for 30 min at room temperature. 10) Each assay plate was read in a Packard TopCount NXT instrument. Calculations and Results
The data from the TopCount instrument were transferred to GraphPad Prism software. The software averages the values for each replicate and performs a non-linear regression.

Assay [2] concerns the target T1, human GLP-1 receptor. The experiment in a line: GLP-1 receptor binding (SPA, displacement of 125I-GLP-1). On the procedure:
The purpose of this experiment is to investigate the binding to the GLP-1 receptor of the GLP-1 derivatives, and how the binding is potentially influenced by the presence of albumin. This is done in an in vitro experiment as described below.
In order to test the binding of the derivatives to albumin, the assay was performed with a low concentration of albumin (0.001%—corresponding to the residual amount thereof in the tracer), as well as with a high concentration of albumin (2.0% added). A shift in the binding affinity, IC50, is an indication that the peptide in question binds to albumin, and thereby a prediction of a potential protracted pharmacokinetic profile of the peptide in question in animal models.
Species (in vitro): Hamster
Biological End Point: Receptor Binding
A stable transfected cell line and a high expressing clone were selected for screening. The cells were grown at 5% CO2 in DMEM, 10% FCS, 1% Pen/Strep (Penicillin/Streptomycin) and 1.0 mg/ml of the selection marker G418.
The cells (approx. 80% confluence) were washed twice in PBS and harvested with Versene (aqueous solution of the tetrasodium salt of ethylenediaminetetraacetic acid), following which they were separated by centrifugation at 1000 rpm for 5 min. The cells/cell pellet must be kept on ice to the extent possible in the subsequent steps. The cell pellet was homogenised with Ultrathurrax for 20-30 seconds in a suitable amount of Buffer 1 (depending on the amount of cells, but e.g. 10 ml). The homogenate was centrifuged at 20000 rpm for 15 minutes. The pellet was resuspended (homogenised) in 10 ml Buffer 2 and re-centrifuged. This step was repeated once more. The resulting pellet was resuspended in Buffer 2, and the protein concentration was determined. The membranes were stored at minus 80° C.
Buffer 1:20 mM Na-HEPES+10 mM EDTA, pH 7.4
Buffer 2:20 mM Na-HEPES+0.1 mM EDTA, pH 7.4
Test compounds, membranes, SPA-particles and [^125I]-GLP-1(7-36)NH2 were diluted in assay buffer. 50 ul (micro liter) HSA (“high albumin” experiment containing 2% HSA), or buffer (“low albumin” experiment containing 0.001% HSA) was added to Optiplate, and 25 ul of test compounds were added. 5-10 ug membrane protein/sample was added (50 ul) corresponding to 0.1-0.2 mg protein/ml (to be preferably optimised for each membrane preparation). SPA-particles (Wheatgerm agglutinin SPA beads, Perkin Elmer, # RPNQ0001) were added in an amount of 0.5 mg/well (50 ul). The incubation was started with [^125I]-GLP-1]-(7-36)NH2 (final concentration 0.06 nM corresponding to 49.880 DPM, 25 ul). The plates were sealed with PlateSealer and incubated for 120 minutes at 30° C. while shaking. The plates were centrifuged (1500 rpm, 10 min) and counted in Topcounter.
(In general: In a radioligand displacement assay an active substance lowers the binding of a labelled ligand.)

The mark [3] stands for this setting: In vitro potency (CRE luciferase) EC50 (1% HSA), 1% HSA.
Where [4] appears, read: Receptor binding affinity IC50 (high HSA), 2.0% HSA (high albumin).

For orientation: pEC50 means −log10 of the EC50, conventionally taken in molar units. In general, pIC50 refers to −log10 of the IC50, conventionally taken in molar units.

Each structure is given as a SMILES string. pEC50, pIC50: −log10 of the molar value.

T1 sequence (P43220 24-463): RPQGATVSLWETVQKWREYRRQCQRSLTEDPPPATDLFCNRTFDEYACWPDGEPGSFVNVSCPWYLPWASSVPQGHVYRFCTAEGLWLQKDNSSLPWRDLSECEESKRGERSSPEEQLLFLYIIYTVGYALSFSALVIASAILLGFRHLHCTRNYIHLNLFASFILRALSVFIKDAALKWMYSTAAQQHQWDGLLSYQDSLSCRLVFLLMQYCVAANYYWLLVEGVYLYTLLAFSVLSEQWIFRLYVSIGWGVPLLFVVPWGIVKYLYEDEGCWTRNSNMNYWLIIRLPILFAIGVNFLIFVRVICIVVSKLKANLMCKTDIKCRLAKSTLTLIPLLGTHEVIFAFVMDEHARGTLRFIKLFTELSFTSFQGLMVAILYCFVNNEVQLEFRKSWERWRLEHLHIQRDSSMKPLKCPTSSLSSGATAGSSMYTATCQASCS

`CC[C@H](C)[C@H](NC(=O)[C@H](Cc1ccccc1)NC(=O)[C@H](CCC(=O)O)NC(=O)[C@H](CCCCNC(=O)[C@@H](N)CCCCNC(=O)[C@@H](N)CCCCNC(=O)CC[C@H](NC(=O)CCCCCCCCCCCCC(=O)O)C(=O)O)NC(=O)[C@H](C)NC(=O)[C@H](C)NC(=O)[C@H](CCC(N)=O)NC(=O)CNC(=O)[C@H](CCC(=O)O)NC(=O)[C@H](CC(C)C)NC(=O)[C@H](Cc1ccc(O)cc1)NC(=O)[C@H](CO)NC(=O)[C@H](CO)NC(=O)[C@@H](NC(=O)[C@H](CC(=O)O)NC(=O)[C@H](CO)NC(=O)[C@@H](NC(=O)[C@H](Cc1ccccc1)NC(=O)[C@@H](NC(=O)CNC(=O)[C@H](CCC(=O)O)NC(=O)C(C)(C)NC(=O)[C@@H](N)Cc1c[nH]cn1)[C@@H](C)O)[C@@H](C)O)C(C)C)C(=O)N[C@@H](C)C(=O)N[C@@H](Cc1c[nH]c2ccccc12)C(=O)N[C@@H](CC(C)C)C(=O)N[C@H](C(=O)N[C@@H](Cc1c[nH]cn1)C(=O)NCC(=O)N[C@@H](CCCNC(=N)N)C(=O)N[C@@H](CCCCNC(=O)[C@@H](N)CCCCNC(=O)[C@@H](N)CCCCNC(=O)CC[C@H](NC(=O)CCCCCCCCCCCCC(=O)O)C(=O)O)C(=O)O)C(C)C` [Example 3, N^ε26-[(2S)-2-amino-6-[[(2S)-2-amino-6-[[(4S)-4-carboxy-4-(13-carboxytridecanoylamino)butanoyl]amino]hexanoyl]amino]hexanoyl], N^ε37-[(2S)-2-amino-6-[[(2S)-2-amino-6-[[(4S)-4-carboxy-4-(13-carboxytridecanoylamino)butanoyl]amino]hexanoyl]amino]hexanoyl]-[Aib^8,His^34,Lys^37]-GLP-1-(7-37)-peptide]: the pEC50 at human GLP-1 receptor [1] (setting [3]) is 10.10. Besides, the “EC50/pM (ratio 1% HSA/0% HSA)” value at human GLP-1 receptor [1] (ratio of EC50 at 1% HSA to EC50 at 0% HSA) is 10.3.

As to `CC[C@H](C)[C@H](NC(=O)[C@H](Cc1ccccc1)NC(=O)[C@H](CCC(=O)O)NC(=O)[C@H](CCCCNC(=O)[C@@H](N)CCCCNC(=O)CC[C@H](NC(=O)CC[C@H](NC(=O)CC[C@H](NC(=O)CCCCCCCCCOc1ccc(C(=O)O)cc1)C(=O)O)C(=O)O)C(=O)O)NC(=O)[C@H](C)NC(=O)[C@H](C)NC(=O)[C@H](CCC(N)=O)NC(=O)CNC(=O)[C@H](CCC(=O)O)NC(=O)[C@H](CC(C)C)NC(=O)[C@H](Cc1ccc(O)cc1)NC(=O)[C@H](CO)NC(=O)[C@H](CO)NC(=O)[C@@H](NC(=O)[C@H](CC(=O)O)NC(=O)[C@H](CO)NC(=O)[C@@H](NC(=O)[C@H](Cc1ccccc1)NC(=O)[C@@H](NC(=O)CNC(=O)[C@H](CCC(=O)O)NC(=O)C(C)(C)NC(=O)[C@@H](N)Cc1c[nH]cn1)[C@@H](C)O)[C@@H](C)O)C(C)C)C(=O)N[C@@H](C)C(=O)N[C@@H](Cc1c[nH]c2ccccc12)C(=O)N[C@@H](CC(C)C)C(=O)N[C@H](C(=O)N[C@@H](CCCNC(=N)N)C(=O)NCC(=O)N[C@@H](CCCNC(=N)N)C(=O)N[C@@H](CCCCNC(=O)[C@@H](N)CCCCNC(=O)CC[C@H](NC(=O)CC[C@H](NC(=O)CC[C@H](NC(=O)CCCCCCCCCOc1ccc(C(=O)O)cc1)C(=O)O)C(=O)O)C(=O)O)C(=O)O)C(C)C` [Example 8, N^ε26-[(2S)-2-amino-6-[[(4S)-4-carboxy-4-[[(4S)-4-carboxy-4-[[(4S)-4-carboxy-4-[10-(4-carboxyphenoxy)decanoylamino]butanoyl]amino]butanoyl]amino]butanoyl]amino]hexanoyl], N^ε37-[(2S)-2-amino-6-[[(4S)-4-carboxy-4-[[(4S)-4-carboxy-4-[[(4S)-4-carboxy-4-[10-(4-carboxyphenoxy)decanoylamino]butanoyl]amino]butanoyl]amino]butanoyl]amino]hexanoyl]-[Aib^8,Arg^34,Lys^37]-GLP-1-(7-37)-peptide], the negative logarithm of the EC50 (pEC50) on human GLP-1 receptor [1] (In vitro potency (CRE luciferase) EC50 (0% HSA), 0% HSA) was 11.59; on human GLP-1 receptor [1] (setting [3]), 10.35. The pIC50 on human GLP-1 receptor [2] (setting [4]) was 6.57; at human GLP-1 receptor [2] (Receptor binding affinity IC50 (low HSA), 0.001% HSA (low albumin)), 9.17.

`CC[C@H](C)[C@H](NC(=O)[C@H](Cc1ccccc1)NC(=O)[C@H](CCC(=O)O)NC(=O)[C@H](CCCCNC(=O)[C@@H](N)CCCCNC(=O)[C@H](CO)NC(=O)CNC(=O)[C@H](CO)NC(=O)CC[C@H](NC(=O)CCCCCCCCCCCOc1ccc(C(=O)O)cc1)C(=O)O)NC(=O)[C@H](C)NC(=O)[C@H](C)NC(=O)[C@H](CCC(N)=O)NC(=O)CNC(=O)[C@H](CCC(=O)O)NC(=O)[C@H](CC(C)C)NC(=O)[C@H](Cc1ccc(O)cc1)NC(=O)[C@H](CO)NC(=O)[C@H](CO)NC(=O)[C@@H](NC(=O)[C@H](CC(=O)O)NC(=O)[C@H](CO)NC(=O)[C@@H](NC(=O)[C@H](Cc1ccccc1)NC(=O)[C@@H](NC(=O)CNC(=O)[C@H](CCC(=O)O)NC(=O)C(C)(C)NC(=O)CCc1c[nH]cn1)[C@@H](C)O)[C@@H](C)O)C(C)C)C(=O)N[C@@H](C)C(=O)N[C@@H](Cc1c[nH]c2ccccc12)C(=O)N[C@@H](CC(C)C)C(=O)N[C@H](C(=O)N[C@@H](CCCNC(=N)N)C(=O)NCC(=O)N[C@@H](CCCNC(=N)N)C(=O)N[C@@H](CCCCNC(=O)[C@@H](N)CCCCNC(=O)[C@H](CO)NC(=O)CNC(=O)[C@H](CO)NC(=O)CC[C@H](NC(=O)CCCCCCCCCCCOc1ccc(C(=O)O)cc1)C(=O)O)C(=O)O)C(C)C` [Example 25]: the negative-log EC50 (pEC50) on human GLP-1 receptor [1] (setting [3]) was 9.91. For the same compound, the pIC50 on human GLP-1 receptor [2] (setting [4]) is 6.56.
